Measurements: patent publication US4129737A, “Process for the preparation of an 8-alkyl-5-oxo-5,8-dihydro-pyrido(2,3-d)pyrimidine-6-carboxylic acid” (priority 1972, dated 1978)
≈ marks a conversion by molar mass, not a printed value. Where two headings read alike, the source gives them in different places.

Assays:
Assay type in all cases: cell-based
Sh. sonnei = test: Minimum inhibitory concentration by agar dilution, Sh. sonnei; settings: Shigella sonnei, 37° C., 18 hours, read-out: minimum inhibitory concentration (M.I.C.)
Protocol: (§1) (a) Trypticase soya medium (T.S.A.), which is very suitable for culturing the majority of microorganisms; it has the following composition:
(§2) (b) Ordinarily nutrient agar (N.A.), which is less rich in nutrients, corresponds to the following formulation: […]
(§3) Table I gives the minimum inhibitory concentrations (expressed in μg/cm^3) for the various microorganisms tested on each medium.
(§4) The products were tested on three Gram positive microorganisms (1 to 3) […] and on 10 Gram negative microorganisms (4 to 13).
(§5) Table (II) gives the minimum inhibitory concentrations of the compounds of Examples XII to XVI, determined on the agar medium, N.A., and expressed in μg/cm^3.

Klebs. pneumoniae = test: Minimum inhibitory concentration by agar dilution, Klebs. pneumoniae; settings: Klebsiella pneumoniae, 37° C., 18 hours, read-out: minimum inhibitory concentration (M.I.C.)
Protocol: as §1, §2, §3, §4, §5

Pr. vulgaris = test: Minimum inhibitory concentration by agar dilution, Pr. vulgaris; settings: Proteus vulgaris
Protocol: as §1, §2, §3, §4, §5

[1] = tested on: Gram-negative microorganisms; test: In vitro anti-microbial activity on agar media, overall; settings: in vitro
Protocol: as §4

Pr. morganii = test: Minimum inhibitory concentration by agar dilution, Pr. morganii; settings: Morganella morganii
Protocol: as §1, §2, §3, §4, §5

Salm. typhi = test: Minimum inhibitory concentration by agar dilution, Salm. typhi; settings: Salmonella enterica, 18 h
Protocol: as §1, §2, §3, §4, §5

B. pyocyaneus TUR = test: Minimum inhibitory concentration by agar dilution, B. pyocyaneus TUR; settings: Pseudomonas aeruginosa, 37° C., 18 hours
Protocol: as §1, §2, §3, §4

Staphylococcus 209 P = test: Minimum inhibitory concentration by agar dilution, Staphylococcus 209 P; settings: Staphylococcus, 37° C., 18 hours, read-out: minimum inhibitory concentration (M.I.C.)
Protocol: as §1, §2, §3, §4, §5

Streptococcus = test: Minimum inhibitory concentration by agar dilution, Streptococcus Group A
Protocol: as §1, §2, §3, §4, §5

Pr. mirabilis = test: Minimum inhibitory concentration by agar dilution, Pr. mirabilis; settings: Proteus mirabilis
Protocol: as §1, §2, §3, §4, §5

Esch. Coli 95 = test: Minimum inhibitory concentration by agar dilution, Esch. Coli 95; settings: Escherichia coli
Protocol: as §1, §2, §3, §4, §5

B. pyocyaneus A22 = test: Minimum inhibitory concentration by agar dilution, B. pyocyaneus A22; settings: Pseudomonas aeruginosa, A22, 37° C., 18 hours, read-out: minimum inhibitory concentration (M.I.C.)
Protocol: as §1, §2, §3, §4, §5

Bord. bronchiseptica = test: Minimum inhibitory concentration by agar dilution, Bord. bronchiseptica; settings: Bordetella bronchiseptica, 37° C., 18 hours, read-out: minimum inhibitory concentration (M.I.C.)
Protocol: as §1, §2, §3, §4, §5

B. subtilis = test: Minimum inhibitory concentration by agar dilution, B. subtilis; settings: Bacillus subtilis, 37° C., 18 hours, read-out: minimum inhibitory concentration (M.I.C.)
Protocol: as §1, §2, §3, §4, §5

[2] = N.A. (nutrient agar, pH 6.8), Table I
[3] = T.S.A. (trypticase soya medium, pH 7.3)
[4] = 18 h, pH 6.8, read-out: minimum inhibitory concentration (M.I.C.)
[5] = T.S.A. (trypticase soya medium, pH 7.3), 37° C., 18 hours, read-out: minimum inhibitory concentration (M.I.C.)
[6] = 18 h, pH 7.3, read-out: minimum inhibitory concentration (M.I.C.)
[7] = N.A. (nutrient agar, pH 6.8), 37° C., 18 hours, Table I, read-out: minimum inhibitory concentration (M.I.C.)
[8] = pH 6.8, read-out: minimum inhibitory concentration (M.I.C.)
[9] = pH 7.3, read-out: minimum inhibitory concentration (M.I.C.)
[10] = T.S.A. (trypticase soya medium, pH 7.3), read-out: minimum inhibitory concentration (M.I.C.)

## CCn1cc(C(=O)O)c(=O)c2cnc(N3CCN(Cc4ccccc4)CC3)nc21 [Example VII, 2-(4'-Benzyl-piperazino)-5-oxo-8-ethyl-5,8-dihydropyrido(2,3-d)pyrimidine-6-carboxylic acid]
Sh. sonnei; [2]
  MIC: 1.6 µg/mL (≈ 4.07 µM)
Sh. sonnei; [3]
  MIC: 12.5 µg/mL (≈ 31.8 µM)
Klebs. pneumoniae; [2]
  MIC: 0.4 µg/mL (≈ 1.02 µM)
Klebs. pneumoniae; [3]
  MIC: 1.6 µg/mL (≈ 4.07 µM)
Pr. vulgaris; [4]
  MIC: 12.5 µg/mL (≈ 31.8 µM)
Pr. vulgaris; [5]
  MIC: 50 µg/mL (≈ 127 µM)
[1]
  activity against Gram-negative microorganisms: particularly active against Gram-negative microorganisms
Pr. morganii; [6]
  MIC: 12.5 µg/mL (≈ 31.8 µM)
Pr. morganii; [7]
  MIC: 3.1 µg/mL (≈ 7.88 µM)
Salm. typhi; [8]
  MIC: 1.6 µg/mL (≈ 4.07 µM)
Salm. typhi; [9]
  MIC: 12.5 µg/mL (≈ 31.8 µM)
B. pyocyaneus TUR; [2]
  MIC: 100 µg/mL (≈ 254 µM)
B. pyocyaneus TUR; [10]
  MIC: > 100 µg/mL
Staphylococcus 209 P; [2]
  MIC: 0.8 µg/mL (≈ 2.03 µM)
Staphylococcus 209 P; [3]
  MIC: 3.1 µg/mL (≈ 7.88 µM)
Streptococcus; [7]
  MIC: 0.8 µg/mL (≈ 2.03 µM)
Streptococcus; [5]
  MIC: 3.1 µg/mL (≈ 7.88 µM)
Pr. mirabilis; [7]
  MIC: 6.2 µg/mL (≈ 15.8 µM)
Pr. mirabilis; [5]
  MIC: 100 µg/mL (≈ 254 µM)
Esch. Coli 95; [6]
  MIC: 12.5 µg/mL (≈ 31.8 µM)
Esch. Coli 95; [7]
  MIC: 1.6 µg/mL (≈ 4.07 µM)
B. pyocyaneus A22; [2]
  MIC: 100 µg/mL (≈ 254 µM)
B. pyocyaneus A22; [3]
  MIC: > 100 µg/mL
Bord. bronchiseptica; [2]
  MIC: 3.1 µg/mL (≈ 7.88 µM)
Bord. bronchiseptica; [3]
  MIC: > 100 µg/mL
B. subtilis; [2]
  MIC: 0.4 µg/mL (≈ 1.02 µM)
B. subtilis; [3]
  MIC: 0.8 µg/mL (≈ 2.03 µM)

## CN1CCN(c2ncc3c(=O)c(C(=O)O)cn(C)c3n2)CC1 [Example X, 2-(4'-Methyl-piperazino)-5-oxo-8-methyl-5,8-dihydropyrido-(2,3-d)pyrimidine-6-carboxylic acid]
Sh. sonnei; [2]
  MIC: 12.5 µg/mL (≈ 41.2 µM)
Sh. sonnei; [3]
  MIC: 3.1 µg/mL (≈ 10.2 µM)
Klebs. pneumoniae; [2]
  MIC: 6.2 µg/mL (≈ 20.4 µM)
Klebs. pneumoniae; [3]
  MIC: 6.2 µg/mL (≈ 20.4 µM)
Pr. vulgaris; [7]
  MIC: 3.1 µg/mL (≈ 10.2 µM)
Pr. vulgaris; [5]
  MIC: 25 µg/mL (≈ 82.4 µM)
[1]
  activity against Gram-negative microorganisms: particularly active against Gram-negative microorganisms
Pr. morganii; [7]
  MIC: 3.1 µg/mL (≈ 10.2 µM)
Pr. morganii; [5]
  MIC: 6.2 µg/mL (≈ 20.4 µM)
Salm. typhi; [8]
  MIC: 3.1 µg/mL (≈ 10.2 µM)
Salm. typhi; [9]
  MIC: 12.5 µg/mL (≈ 41.2 µM)
B. pyocyaneus TUR; [2]
  MIC: 50 µg/mL (≈ 165 µM)
B. pyocyaneus TUR; [10]
  MIC: > 100 µg/mL
Staphylococcus 209 P; [2]
  MIC: 50 µg/mL (≈ 165 µM)
Staphylococcus 209 P; [3]
  MIC: 100 µg/mL (≈ 330 µM)
Streptococcus; [7]
  MIC: 50 µg/mL (≈ 165 µM)
Streptococcus; [5]
  MIC: 100 µg/mL (≈ 330 µM)
Pr. mirabilis; [6]
  MIC: 12.5 µg/mL (≈ 41.2 µM)
Pr. mirabilis; [7]
  MIC: 3.1 µg/mL (≈ 10.2 µM)
Esch. Coli 95; [7]
  MIC: 1.6 µg/mL (≈ 5.27 µM)
Esch. Coli 95; [5]
  MIC: 6.2 µg/mL (≈ 20.4 µM)
B. pyocyaneus A22; [2]
  MIC: 50 µg/mL (≈ 165 µM)
B. pyocyaneus A22; [3]
  MIC: > 100 µg/mL
Bord. bronchiseptica; [2]
  MIC: 25 µg/mL (≈ 82.4 µM)
Bord. bronchiseptica; [3]
  MIC: 100 µg/mL (≈ 330 µM)
B. subtilis; [2]
  MIC: 100 µg/mL (≈ 330 µM)
B. subtilis; [3]
  MIC: > 100 µg/mL

## CCn1cc(C(=O)O)c(=O)c2cnc(N3CCC(O)CC3)nc21 [IV, 2-(4'-Hydroxy-piperidino)-5-oxo-8-ethyl-5,8-dihydropyrido(2,3-d)pyrimidine-6-carboxylic acid]
Sh. sonnei; [2]
  MIC: 3.1 µg/mL (≈ 9.74 µM)
Sh. sonnei; [3]
  MIC: 12.5 µg/mL (≈ 39.3 µM)
Klebs. pneumoniae; [2]
  MIC: 0.4 µg/mL (≈ 1.26 µM)
Klebs. pneumoniae; [3]
  MIC: 0.8 µg/mL (≈ 2.51 µM)
Pr. vulgaris; [6]
  MIC: 12.5 µg/mL (≈ 39.3 µM)
Pr. vulgaris; [7]
  MIC: 3.1 µg/mL (≈ 9.74 µM)
[1]
  activity against Gram-negative microorganisms: particularly active against Gram-negative microorganisms
Pr. morganii; [7]
  MIC: 0.4 µg/mL (≈ 1.26 µM)
Pr. morganii; [5]
  MIC: 0.8 µg/mL (≈ 2.51 µM)
Salm. typhi; [8]
  MIC: 6.2 µg/mL (≈ 19.5 µM)
Salm. typhi; [9]
  MIC: 12.5 µg/mL (≈ 39.3 µM)
B. pyocyaneus TUR; [2]
  MIC: 100 µg/mL (≈ 314 µM)
B. pyocyaneus TUR; [10]
  MIC: > 100 µg/mL
Staphylococcus 209 P; [2]
  MIC: 1.6 µg/mL (≈ 5.03 µM)
Staphylococcus 209 P; [3]
  MIC: 50 µg/mL (≈ 157 µM)
Streptococcus; [4]
  MIC: 12.5 µg/mL (≈ 39.3 µM)
Streptococcus; [6]
  MIC: 12.5 µg/mL (≈ 39.3 µM)
Pr. mirabilis; [4]
  MIC: 12.5 µg/mL (≈ 39.3 µM)
Pr. mirabilis; [5]
  MIC: 25 µg/mL (≈ 78.5 µM)
Esch. Coli 95; [6]
  MIC: 12.5 µg/mL (≈ 39.3 µM)
Esch. Coli 95; [7]
  MIC: 6.2 µg/mL (≈ 19.5 µM)
B. pyocyaneus A22; [2]
  MIC: 100 µg/mL (≈ 314 µM)
B. pyocyaneus A22; [3]
  MIC: > 100 µg/mL
Bord. bronchiseptica; [2]
  MIC: 100 µg/mL (≈ 314 µM)
Bord. bronchiseptica; [3]
  MIC: > 100 µg/mL
B. subtilis; [2]
  MIC: 0.8 µg/mL (≈ 2.51 µM)
B. subtilis; [3]
  MIC: 3.1 µg/mL (≈ 9.74 µM)
